Laboratory results from patent publication US20030134859A1 (SANKYO COMPANY, LIMITED, priority 2000, published 2003).

Tests used:
human PPAR γ 2 = biological target: T1, human PPAR γ 2 (Homo sapiens, UniProt P37231); experiment: Inhibitory activity against PPAR γ transcription in the presence of agonist compound A, luciferase reporter; assay type: cell-based; conditions: in the presence of 10 nM compound A (agonist); MG63 cells transfected with pSG5-hPPARg and pGV-P2-PPRE; 24 hr
T1 construct: expressed in transfected cells; host or cells: human osteosarcoma MG63, transiently co-transfected with pSG5-hPPARg and the reporter pGV-P2-PPRE
T1 sequence (P37231 1-505): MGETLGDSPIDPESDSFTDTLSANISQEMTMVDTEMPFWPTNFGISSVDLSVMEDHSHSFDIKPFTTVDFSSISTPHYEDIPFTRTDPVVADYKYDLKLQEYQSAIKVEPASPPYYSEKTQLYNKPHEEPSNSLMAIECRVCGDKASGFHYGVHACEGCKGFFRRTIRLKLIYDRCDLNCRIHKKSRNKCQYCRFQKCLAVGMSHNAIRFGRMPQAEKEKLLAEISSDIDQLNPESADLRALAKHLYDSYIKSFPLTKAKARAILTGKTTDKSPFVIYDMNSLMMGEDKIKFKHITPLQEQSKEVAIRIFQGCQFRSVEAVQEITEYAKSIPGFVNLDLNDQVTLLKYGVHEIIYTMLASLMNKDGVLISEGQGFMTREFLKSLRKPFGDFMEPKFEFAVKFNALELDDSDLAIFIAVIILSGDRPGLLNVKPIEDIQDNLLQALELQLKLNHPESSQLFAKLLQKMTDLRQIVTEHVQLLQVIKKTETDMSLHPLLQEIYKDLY

[1] = tested on: human colon cancer cells COL-2-JCK; experiment: Inhibition of colony forming activity in human colon cancer cells; assay type: cell-based; conditions: 1 μM test compound, 10 days, sum of colony areas vs control; for inhibition at 1 µM: Homo sapiens, 240 h, read-out: Inhibition Rate (%) against the colony forming activity
Summary of the method: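 COL-2-JCK cells seeded at 300 cells/well and grown 10 days at 37 °C, 5% CO2 with compound at 1 μM final (0.1% DMSO). Colonies stained with crystal violet in formalin; inhibition % = (1 − treated/control colony area)×100.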

Structure (SMILES) | IC50 (human PPAR γ 2) | inhibition at 1 µM [1] | Inhibition Rate (%) against the colony forming activity [1]
Cc1noc(NS(=O)(=O)c2ccc(NC(=O)c3cc([N+](=O)[O-])ccc3Cl)cc2)c1C [Example 104, N-[4-[(3,4-Dimethylisoxazol-6-yl)aminosulfonyl]phenyl]-(2-chloro-5-nitrophenyl)carboxamide] | 270 nM | 22% | 
O=C(Nc1ccc(N2CCCCC2)cc1)c1cc([N+](=O)[O-])ccc1Cl [Example 114, N-[4-(Piperidin-1-yl)phenyl]-(2-chloro-5-nitrophenyl)carboxamide] |  | 22% | 
Cc1ccc2nc(NC(=O)c3cc([N+](=O)[O-])ccc3Cl)sc2c1 [Example 141, N-(6-Methybenzothiazol-2-yl)-(2-chloro-5-nitrophenyl)carboxamide] |  |  | 47.0%
CCc1ccc(S(=O)(=O)Nc2ccc(NC(=O)c3cc([N+](=O)[O-])ccc3Cl)cc2)cc1 [Example 150, N-[4-(4-Ethylbenzenesulfonylamino)phenyl]-(2-chloro-5-nitrophenyl)carboxamide] |  | 41% | 

Continued, in another order:

IC50 (human PPAR γ 2) | Structure (SMILES) | inhibition at 1 µM [1] | Inhibition Rate (%) against the colony forming activity [1]
61 nM | Cc1nnc(NS(=O)(=O)c2ccc(NC(=O)c3cc([N+](=O)[O-])ccc3Cl)cc2)s1 [Example 101, N-[4-[(5-Methyl-[1,3,4]thiadiazol-2-yl)aminosulfonyl]phenyl]-(2-chloro-5-nitrophenyl)carboxamide] | 32% | 
8.6 nM | CC(=O)Nc1ccc(-c2ccc(NC(=O)c3cc([N+](=O)[O-])ccc3Cl)cc2)cc1 [Example 118, N-[4-(4-Acetylaminophenyl)phenyl]-(2-chloro-5-nitrophenyl)carboxamide] | 41% | 
13 nM | O=C(Nc1ccc(-c2ccc(NC(=O)c3cc([N+](=O)[O-])ccc3Cl)cc2)cc1)c1ccccc1 [Example 120, N-[4-(4-Benzoylaminophenyl)phenyl]-(2-chloro-5-nitrophenyl)carboxamide] | 44% | 
